Source: patent US11324749B2, “Combination therapy for treatment of hematological diseases” (Incyte Corporation, priority 2018, dated 2022)

Tests used:
[1] = system: Human multiple myeloma cell lines KMS12BM, OPM2, MM1.R, MM1.S and KMS11; test: Cell Titer Glo viability of multiple myeloma cell lines; format: cell-based; details: 72 hours, compared to DMSO treated controls, all five cell lines
Method: Human multiple myeloma cell lines KMS12BM, OPM2 (DSMZ), MM1.R, MM1.S (ATCC) and KMS11 (JCRB) were seeded into white 96 well plates (Greiner Bio One) at 10^4 cells in 100 μL media. Combinations of dexamethasone (Sigma), lenalidomide (Chemscene), itacitinib, or DMSO control were then added. Doses were selected based on pilot studies designed to find sensitivities of each cell line to these agents. Each dose combination was performed in triplicate. After 72 hours, Cell Titer Glo (Promega) assays were performed as per manufacturer protocol to assess cell viability.
Statistical analyses were performed using Prism Graphpad software. P values were calculated from unpaired t tests—*p<0.05; **p<0.01; ****p<0.0001).

[2] = biological target: human JAK1 (a.a. 837-1142) (Homo sapiens, UniProt P23458); test: In vitro JAK kinase assay (HTRF), JAK1; format: biochemical; details: 1 mM ATP
Method: (§1) The catalytic activity of JAK1, JAK2, or JAK3 was assayed by measuring the phosphorylation of a biotinylated peptide. The phosphorylated peptide was detected by homogenous time resolved fluorescence (HTRF). […] Reactions are carried out at room temperature for 1 hour and then stopped with 20 μL 45 mM EDTA, 300 nM SA-APC, 6 nM Eu-Py20 in assay buffer (Perkin Elmer, Boston, Mass.). Binding to the Europium labeled antibody takes place for 40 minutes and HTRF signal was measured on a Fusion plate reader (Perkin Elmer, Boston, Mass.).

[3] = biological target: human JAK2 (a.a. 828-1132) (Homo sapiens (Human), UniProt O60674); test: In vitro JAK kinase assay (HTRF), JAK2 versus JAK1; format: biochemical; details: IC50 ratio, 1 mM ATP
human JAK2 (a.a. 828-1132), sequence (O60674 828-1132): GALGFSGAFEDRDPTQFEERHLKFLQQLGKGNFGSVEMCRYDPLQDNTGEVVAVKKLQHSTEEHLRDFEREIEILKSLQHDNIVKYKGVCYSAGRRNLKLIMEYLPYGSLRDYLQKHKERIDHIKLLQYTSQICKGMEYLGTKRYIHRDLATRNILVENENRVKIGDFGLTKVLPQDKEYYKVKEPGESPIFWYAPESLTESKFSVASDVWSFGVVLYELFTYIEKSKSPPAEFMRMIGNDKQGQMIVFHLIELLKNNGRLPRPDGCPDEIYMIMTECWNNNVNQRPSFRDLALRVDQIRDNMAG
Method: as §1

IC50 [2]: < 10 nM
JAK2/JAK1 [3]: >10
Compound: N#CCC1(n2cc(-c3ncnc4[nH]ccc34)cn2)CN(C2CCN(C(=O)c3ccnc(C(F)(F)F)c3F)CC2)C1 [Compound 1, {1-{1-[3-Fluoro-2-(trifluoromethyl)isonicotinoyl]piperidin-4-yl}-3-[4-(7H-pyrrolo[2,3-d]pyrimidin-4-yl)-1H-pyrazol-1-yl]azetidin-3-yl}acetonitrile]
cell viability [1]: no change in viability
